From PubChem BioAssay (NCI)
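Where inhibition never reached the appropriate level, the endpoint shown equals the highest concentration tested. Otherwise, values were interpolated linearly from a five-concentration, 48-hour dose response in 96-well plates. GI50 = concentration required for 50% inhibition of growth. TGI marks complete inhibition of growth.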

Key:
Assay in all cases: inhibition of tumour cell growth, NCI panel, 48 h
OVCAR-4 ovarian = tested on: OVCAR-4 ovarian
BT-549 breast = tested on: BT-549 breast
COLO 205 colon = tested on: COLO 205 colon
MDA-MB-231 breast = tested on: MDA-MB-231 breast
NCI-H522 lung = tested on: NCI-H522 lung
DU-145 prostate = tested on: DU-145 prostate
UO-31 renal = tested on: UO-31 renal
HCT-15 colon = tested on: HCT-15 colon
M14 melanoma = tested on: M14 melanoma
HS 578T breast = tested on: HS 578T breast
SNB-75 CNS = tested on: SNB-75 CNS
HOP-62 NSCLC = tested on: HOP-62 NSCLC
ACHN renal = tested on: ACHN renal
U251 CNS = tested on: U251 CNS
UACC-257 melanoma = tested on: UACC-257 melanoma
T-47D breast = tested on: T-47D breast
SR leukemia = tested on: SR leukemia
UACC-62 melanoma = tested on: UACC-62 melanoma
HCT-116 colon = tested on: HCT-116 colon
A498 renal = tested on: A498 renal
OVCAR-3 ovarian = tested on: OVCAR-3 ovarian
RPMI-8226 leukemia = tested on: RPMI-8226 leukemia
HCC-2998 colon = tested on: HCC-2998 colon
SF-295 CNS = tested on: SF-295 CNS
CAKI-1 renal = tested on: CAKI-1 renal
SK-MEL-28 melanoma = tested on: SK-MEL-28 melanoma
OVCAR-8 ovarian = tested on: OVCAR-8 ovarian
IGROV1 ovarian = tested on: IGROV1 ovarian
SN12C renal = tested on: SN12C renal
MALME-3M melanoma = tested on: MALME-3M melanoma
PC-3 prostate = tested on: PC-3 prostate
CCRF-CEM leukemia = tested on: CCRF-CEM leukemia
SK-MEL-2 melanoma = tested on: SK-MEL-2 melanoma
K-562 leukemia = tested on: K-562 leukemia
KM12 colon = tested on: KM12 colon
SNB-19 CNS = tested on: SNB-19 CNS
MCF7 breast = tested on: MCF7 breast
NCI-H23 lung = tested on: NCI-H23 lung
RXF 393 renal = tested on: RXF 393 renal
LOX IMVI melanoma = tested on: LOX IMVI melanoma
HOP-92 NSCLC = tested on: HOP-92 NSCLC
SK-MEL-5 melanoma = tested on: SK-MEL-5 melanoma
TK-10 renal = tested on: TK-10 renal
HT29 colon = tested on: HT29 colon
SK-OV-3 ovarian = tested on: SK-OV-3 ovarian
MDA-MB-435 = tested on: MDA-MB-435
HL-60(TB) leukemia = tested on: HL-60(TB) leukemia
786-0 renal = tested on: 786-0 renal
NCI-H226 lung = tested on: NCI-H226 lung
SF-539 CNS = tested on: SF-539 CNS
A549 NSCLC = tested on: A549 NSCLC
NCI-H460 lung = tested on: NCI-H460 lung
OVCAR-5 ovarian = tested on: OVCAR-5 ovarian
SF-268 CNS = tested on: SF-268 CNS
SW-620 colon = tested on: SW-620 colon
MOLT-4 leukemia = tested on: MOLT-4 leukemia
NCI/ADR-RES ovarian = tested on: NCI/ADR-RES ovarian

Structure (SMILES): CS(=O)(=O)Nc1ccc(Nc2c3ccccc3nc3cc(N)ccc23)cc1
- GI50 (OVCAR-4 ovarian): 2.92 µM
- TGI (OVCAR-4 ovarian): 26.8 µM
- GI50 (BT-549 breast): 1.35 µM
- TGI (BT-549 breast): 8.41 µM
- GI50 (COLO 205 colon): 2.51 µM
- TGI (COLO 205 colon): 20 µM
- GI50 (MDA-MB-231 breast): 12.4 µM
- TGI (MDA-MB-231 breast): 34 µM
- GI50 (NCI-H522 lung): 0.164 µM
- TGI (NCI-H522 lung): 2.69 µM
- GI50 (DU-145 prostate): 0.48 µM
- TGI (DU-145 prostate): 26 µM
- GI50 (UO-31 renal): 3.13 µM
- TGI (UO-31 renal): > 100 µM
- GI50 (HCT-15 colon): 11 µM
- TGI (HCT-15 colon): > 100 µM
- GI50 (M14 melanoma): 0.361 µM
- TGI (M14 melanoma): 7.1 µM
- GI50 (HS 578T breast): 1.72 µM
- TGI (HS 578T breast): 13.4 µM
- GI50 (SNB-75 CNS): 0.726 µM
- TGI (SNB-75 CNS): 12.4 µM
- GI50 (HOP-62 NSCLC): 0.26 µM
- TGI (HOP-62 NSCLC): 10.2 µM
- GI50 (ACHN renal): 0.231 µM
- TGI (ACHN renal): 17.8 µM
- GI50 (U251 CNS): 0.0794 µM
- TGI (U251 CNS): 1.3 µM
- GI50 (UACC-257 melanoma): 1.48 µM
- TGI (UACC-257 melanoma): 14.9 µM
- GI50 (T-47D breast): 0.0806 µM
- TGI (T-47D breast): 2.52 µM
- GI50 (SR leukemia): 0.035 µM
- TGI (SR leukemia): 1.19 µM
- GI50 (UACC-62 melanoma): 0.555 µM
- TGI (UACC-62 melanoma): 14.8 µM
- GI50 (HCT-116 colon): 0.717 µM
- TGI (HCT-116 colon): 29.2 µM
- GI50 (A498 renal): 1.32 µM
- TGI (A498 renal): 17.4 µM
- GI50 (OVCAR-3 ovarian): 1.7 µM
- TGI (OVCAR-3 ovarian): 8.83 µM
- GI50 (RPMI-8226 leukemia): 0.567 µM
- TGI (RPMI-8226 leukemia): 6.84 µM
- GI50 (HCC-2998 colon): 5.22 µM
- TGI (HCC-2998 colon): 24.4 µM
- GI50 (SF-295 CNS): 0.227 µM
- TGI (SF-295 CNS): 6.79 µM
- GI50 (CAKI-1 renal): 0.319 µM
- TGI (CAKI-1 renal): 13 µM
- GI50 (SK-MEL-28 melanoma): 1.9 µM
- TGI (SK-MEL-28 melanoma): 16.2 µM
- GI50 (OVCAR-8 ovarian): 0.376 µM
- TGI (OVCAR-8 ovarian): 22.2 µM
- GI50 (IGROV1 ovarian): 5.38 µM
- TGI (IGROV1 ovarian): > 73.6 µM
- GI50 (SN12C renal): 0.15 µM
- TGI (SN12C renal): 4.88 µM
- GI50 (MALME-3M melanoma): 0.62 µM
- TGI (MALME-3M melanoma): 3.66 µM
- GI50 (PC-3 prostate): 1.31 µM
- TGI (PC-3 prostate): 27.1 µM
- GI50 (CCRF-CEM leukemia): 0.0776 µM
- TGI (CCRF-CEM leukemia): 2.04 µM
- GI50 (SK-MEL-2 melanoma): 2.26 µM
- TGI (SK-MEL-2 melanoma): 7.04 µM
- GI50 (K-562 leukemia): 1.31 µM
- TGI (K-562 leukemia): 23.9 µM
- GI50 (KM12 colon): 0.499 µM
- TGI (KM12 colon): 7.14 µM
- GI50 (SNB-19 CNS): 0.241 µM
- TGI (SNB-19 CNS): 15.4 µM
- GI50 (MCF7 breast): 0.052 µM
- TGI (MCF7 breast): 9.16 µM
- GI50 (NCI-H23 lung): 0.436 µM
- TGI (NCI-H23 lung): 12.8 µM
- GI50 (RXF 393 renal): 12.5 µM
- TGI (RXF 393 renal): 34.9 µM
- GI50 (LOX IMVI melanoma): 0.418 µM
- TGI (LOX IMVI melanoma): 15.2 µM
- GI50 (HOP-92 NSCLC): 0.398 µM
- TGI (HOP-92 NSCLC): 4.4 µM
- GI50 (SK-MEL-5 melanoma): 0.615 µM
- TGI (SK-MEL-5 melanoma): 5.45 µM
- GI50 (TK-10 renal): 6.08 µM
- TGI (TK-10 renal): 31.7 µM
- GI50 (HT29 colon): 5.15 µM
- TGI (HT29 colon): 31.7 µM
- GI50 (SK-OV-3 ovarian): 1.31 µM
- TGI (SK-OV-3 ovarian): 27.7 µM
- GI50 (MDA-MB-435): 5.79 µM
- TGI (MDA-MB-435): 21.6 µM
- GI50 (HL-60(TB) leukemia): 0.769 µM
- TGI (HL-60(TB) leukemia): 8.51 µM
- GI50 (786-0 renal): 0.277 µM
- TGI (786-0 renal): 4.66 µM
- GI50 (NCI-H226 lung): 0.246 µM
- TGI (NCI-H226 lung): 3.89 µM
- GI50 (SF-539 CNS): 0.531 µM
- TGI (SF-539 CNS): 9.47 µM
- GI50 (A549 NSCLC): 0.062 µM
- TGI (A549 NSCLC): 15.6 µM
- GI50 (NCI-H460 lung): 0.0255 µM
- TGI (NCI-H460 lung): 2.6 µM
- GI50 (OVCAR-5 ovarian): 5.57 µM
- TGI (OVCAR-5 ovarian): 39.7 µM
- GI50 (SF-268 CNS): 0.0222 µM
- TGI (SF-268 CNS): 5.69 µM
- GI50 (SW-620 colon): 0.561 µM
- TGI (SW-620 colon): 30 µM
- GI50 (MOLT-4 leukemia): 0.0194 µM
- TGI (MOLT-4 leukemia): 0.987 µM
- GI50 (NCI/ADR-RES ovarian): > 100 µM
- TGI (NCI/ADR-RES ovarian): > 100 µM
